Measurements published in paper PMC6271975, “Structure-Activity Relationship Study of Sesquiterpene Lactones and Their Semi-Synthetic Amino Derivatives as Potential Antitrypanosomal Products” (Molecules, 2014).
Entries after “also recorded” stand apart in the source; their conditions may differ. Where a name gives a salt, the structure may show the parent alone. Read-outs that look alike come from different tables or passages of the source.

How the values were obtained:
[1] = tested on: T. b. rhodesiense STIB900; assay: Acute mouse sleeping sickness model (STIB 900); type: in vivo, NMRI mice; settings: for signs of toxicity in mice: acute mouse model; for survival: po, average of all mice, untreated controls euthanized at day 10 post infection
Procedure: This model mimics the first stage of the human African trypanosomiasis. Adult female NMRI mice were purchased from Janvier (St. Berthevin, France). They weighed between 20 and 25 g at the beginning of the study and were kept under standard conditions at 22 °C and 60%–70% humidity in macrolon type III cages with food pellets and water ad libitum. […] The samples were first dissolved in 100% DMSO, followed by addition of distilled H2O to a final DMSO concentration of 10%. For determination of the in vivo antitrypanosomal activity, mice were infected intraperitoneally with 1 × 10^4 STIB900 bloodstream forms. Experimental groups of four mice were treated orally once a day on four consecutive days from day 3 to day 6 post infection. A control group of four mice was infected, but remained untreated. The determination of the parasitaemia was done on day 7 post infection. […] Five μL of this mixture were transferred to a glass slide and covered with an 18 × 18 mm cover slide. The sample was examined under a light microscope (200-fold magnification) and parasites were counted in 3 of the 16 squares of the grid.

[2] = tested on: T. b. rhodesiense STIB 900 bloodstream forms; set-up: method as in PMID 22331812, PMID 24080104, PMID 21624443, PMID 22396915; settings: cited from earlier work
[3] = tested on: rat skeletal myoblasts (L6-cells); set-up: method as in PMID 22331812, PMID 24080104, PMID 21624443, PMID 22396915; settings: cytotoxicity; previously reported compounds included for comparison; cited from earlier work
[4] = tested on: T. b. rhodesiense STIB900; set-up: method as in PMID 22331812, PMID 24080104; settings: intraperitoneal, 10 mg/kg/b.i.d. for four consecutive days; cited from earlier work
[5] = tested on: T. b. rhodesiense STIB 900 bloodstream forms; assay: In vitro antitrypanosomal Alamar Blue assay; type: cell-based, Trypanosoma brucei rhodesiense; settings: Trypanosoma brucei; 70 h incubation; average of three independent assays; read-out: T. brucei STIB 900 IC50
Procedure: Evaluation of in vitro antiprotozoal activity against T. b. rhodesiense was done using the Alamar Blue assay to determine IC50s as previously described. Serial threefold dilution were prepared in 96-well micro titre plates, and 4000 T. b. rhodesiense STIB 900 bloodstream forms in 50 μL were added to each well except for the negative controls. Melarsoprol (Arsobal®, purity > 95%, Sanofi-Aventis, Meyrin, Switzerland) was used as reference drugs. […] The IC50 values were calculated from the sigmoidal growth inhibition curves using Softmax Pro software (Molecular Devices).

[6] = tested on: rat skeletal myoblasts (L6-cells); assay: cells; type: cell-based; settings: Rattus norvegicus, L6; cytotoxicity; 70 h incubation; average of three independent assays; read-out: L6 cells IC50
Procedure: The cytotoxicity assay was performed with rat skeletal myoblasts (L6-cells) seeded in 100 μL RPMI 1640 in 96-well micro titre plates, using the Alamar Blue assay described above. After 24 h the medium was removed and replaced by 100 μL of fresh RPMI 1640 with serial threefold drug dilution. Podophyllotoxin (purity > 95%, Sigma-Aldrich) was used as a reference drug. After 70 h of incubation under a humidified 5% CO2 atmosphere, 10 μL of the Alamar blue marker (see above) was added to all wells. The plates were incubated for an additional 2 h. A Spectramax Gemini XS micro plate fluorescence reader (Molecular Devices) was used to read the plates using an excitation wavelength of 536 nm and an emission wavelength of 588 nm. The IC50s were calculated from the sigmoidal growth inhibition curves using Softmax Pro software (Molecular Devices).

Structure (SMILES) | signs of toxicity in mice ([1]; oral administration) | parasitemia on day 7 after infection ([1]; oral, 50 mg/kg body weight/day, four mice) | survival ([1]; 4 × 50 mg/kg) [days] | SI (Selectivity Index) ([2]; IC50 against L6 cells divided by IC50 against STIB 900 strain, previously reported compounds) | IC50 ([2]; previously reported compounds included for comparison, compound 9 tested once, read-out: T. brucei STIB 900 IC50) [nM] | IC50 [3] [nM] | cure of mice [4] | parasitemia [4] | IC50 [5] [nM] | IC50 [6] [nM] | in vivo efficacy ([1]; oral administration, mean survival time versus control) | survival ([1]; 4 × 25 mg/kg) [days]
C=C(CO)C(=O)O[C@H]1CC(=C)[C@@H]2C[C@H](O)C(=C)[C@@H]2[C@H]2OC(=O)C(=C)[C@@H]21 [Compound 1, Cynaropicrin] | euthanized on day 10 post infection due to obvious signs of cytotoxicity | reduced parasitemia | 9.5 | 7.8 | 300 ± 1 | 2200 ± 300 | not able to cure the mice | parasitemia was decreased over several days |  |  |  | 
C=C(CO)C(=O)OC1CC(=C)C2CC(O)C(=C)C2C2OC(=O)C(CN(C)C)C12 (centres unmarked) [Compound 19, Cynaropicrin dimethylamine adduct hydrochloride] | less signs of toxicity |  | 10 |  |  |  |  |  | 500 ± 3 | 5200 ± 1300 | no in vivo efficacy; also recorded: did not show any in vivo efficacy | 8.5
